One test deals with HUVECs. Kind of test: NO and ONOO^− release from HUVECs treated concomitantly with agents and oxLDL (Example 11, Objective 2). It is filed as cell-based, human. Particulars: oxLDL 11 mg/dL treated 30 min with agents, each at 10 μM; cells exposed 60 min. On the procedure:
The omega-3 fatty acid, cis-5,8,11,14,17-eicosapentaenoic acid (EPA) and docosahexaenoic acid (DHA) were purchased from Sigma-Aldrich (Saint Louis, Mo.) and solubilized in redistilled ethanol to 11 mM under nitrogen atmosphere. EPA and DHA stock solutions were stored at −20° C. until use.
Human umbilical vein endothelial cells (HUVECs) were obtained from healthy, female donors and isolated into primary, proliferating cell cultures (Clonetics, San Diego, Calif.). The cells were incubated in 95% air/5% CO2 at 37° C. and passaged by an enzymatic (trypsin) procedure. The confluent cells (4 to 5×10^5 cells/35 mm dish) were plated with minimum essential medium containing 3 mM L-arginine and 0.1 mM BH4 [(6R)-5,6,7,8-tetrahydrobiopterin]. Before experimental use, the cells (from second or third passage) were rinsed twice with Tyrode-HEPES buffer with 1.8 mM CaCl2.
Venous blood was collected from healthy volunteers into vacutainer tubes containing sodium EDTA. Plasma was separated by centrifugation at 3000 g for 25 min at 4° C. and adjusted to a density of 1.020 g/mL with KBr. Triglyceride-rich lipoproteins (TGRL) and LDL fractions were isolated by sequential centrifugation at 70,000 rpm at 4° C. in a Beckman LE-80 ultracentrifuge using a Beckman 50.4Ti rotor (Beckman Coulter, Inc., Fullerton, Calif.). The TGRL fraction (with a relative density of <1.020) was aspirated from the top of the centrifugate and discarded, leaving an LDL-enriched infranate (with a relative density of 1.020-1.063). The LDL subfraction was retained for additional experimentation. Plasma and lipoprotein fractions were maintained at 4° C. and protected from excessive exposure to light. Prior to oxidation experiments, EDTA was removed from the lipoprotein fraction using PD-10 desalting columns (GE Healthcare, Piscataway N.J.). After equilibration of the column with phosphate buffered saline (PBS), 2.5 mL of the lipoprotein fraction was loaded on the column and the flow-through discarded. The lipoprotein was then eluted with 3 mL of PBS. The LDL fractions were further diluted with PBS to obtain a 100 μg/mL apoB100 concentration.
LDL underwent oxidation following the addition of 10 μM CuSO4. […] Sample TBARS concentrations were determined spectrophotometrically by measuring sample absorbances against a standard curve derived from the hydrolysis of 1,1,3,3-tetramethoxypropane. […]
The amperometric method (with a response time of 0.1 ms) provides a quantitative signal (current) that is directly proportional to changes (from basal levels) in NO or ONOO^− concentration. […] Basal NO or ONOO^− levels were measured by differential pulse voltammetry in separate experiments. […]

Test [1] is described as follows: Glucose- and peroxidation-induced cholesterol domain formation, small angle x-ray diffraction (Example 4). Particulars: 1:30 mole ratio; for effect on membrane structure as compared to control: at the start of the experiment (0 hours). On the procedure: Samples were shell-dried under nitrogen gas and placed under vacuum for 1 h to remove residual solvent. […] Lipid suspensions were then vortexed for 3 min at ambient temperature to form MLVs. […] Membrane lipid vesicles were oriented for x-ray diffraction analysis as described by others (e.g., Herbette et al., Biophys. […] Briefly, a 100 μL aliquot (containing 250 μg MLV) was aspirated from each sample and transferred to a Lucite® sedimentation cell fitted with an aluminum foil substrate upon which a given sample could be collected by centrifugation. Samples were then loaded into a Sorvall AH-629 swinging bucket rotor (DuPont Corp., Wilmington, Del.) and centrifuged at 35,000 g, 5° C., for 90 min. After centrifugal orientation, sample supernatants were aspirated and aluminum foil substrates, each supporting a single membrane pellet, were removed from the sedimentation cells. Sample pellets were dried for 5-10 min at ambient conditions, mounted onto curved glass supports, and placed in hermetically-sealed, brass or glass containers (for immediate analysis or temporary storage, respectively). All x-ray diffraction experiments were conducted at 20° C., 74% relative humidity. The latter was established by exposing membrane samples to saturated solutions of L-(+) tartaric acid (K2C4H4O6.½H2O). Samples were incubated at these conditions for at least 1 hour prior to experimental analysis. Oriented membrane samples were aligned at grazing incidence with respect to a collimated, mono-chromatic CuKα x-ray beam (Kα1 and Kα2 unresolved; λ=1.54 Å) produced by a Rigaku Rotaflex RU-200, high-brilliance microfocus generator (Rigaku-MSC, The Woodlands, Tex.) as previously described (Mason et al., Biophys. J., vol. 55(4), pages 769-778 (1989)). Diffraction data were collected on a one-dimensional, position-sensitive electron detector (Hecus X-ray Systems, Graz, Austria) at a sample-to-detector distance of 150 mm. […] The d-space for any given membrane multibilayer is a measurement of the unit cell periodicity of the membrane lipid bilayer (e.g., the distance from the center of one lipid bilayer to the next including surface hydration), and is calculated from Bragg's Law, h λ=2 d sin θ, where h is the diffraction order, λ is the wavelength of the x-ray radiation (1.54 Å), d is the membrane lipid bilayer unit cell periodicity, and θ is the Bragg angle equal to one-half the angle between the incident beam and scattered beam. […] Under the specific temperature and relative humidity conditions established for these experiments, the second-order, 17 Å cholesterol domain peak was well-delineated from other, neighboring cholesterol and phospholipid diffraction peaks and was thus used to quantitate relative cholesterol domain peak intensity. […]

In another test the test system is unfractionated LDL. Kind of test: Copper-induced oxidation of unfractionated LDL, TBARS after 2 hr (Example 6). It is filed as biochemical, human.

Molecules are shown by their SMILES.

For `CC/C=C\C/C=C\C/C=C\C/C=C\C/C=C\C/C=C\CCC(=O)O` [DHA, docosahexaenoic acid], in the test on HUVECs, the NO came out at 362 ± 39 and the “ONOO^−” value worked out at 240 ± 27.
For the compound `CC/C=C\C/C=C\C/C=C\C/C=C\C/C=C\CCCC(=O)O` [EPA, cis-5,8,11,14,17-eicosapentaenoic acid], the “inhibition of relative cholesterol domain peak intensity” value in test [1] (96-hour time point, compared to vehicle or vitamin E) was “more than 99%”. For the same compound, the “effect on membrane structure as compared to control” value in test [1] (glucose 200 mg/dL) is on record as “no appreciable effect on membrane structure”. Also, in the test with unfractionated LDL (10.0 μM, unfractionated LDL), the “reduction of TBARS levels” value came to 17%. Moreover, in the test on HUVECs, the NO is reported as 385 ± 43 and the “ONOO^−” value worked out at 232 ± 24.
Regarding `Cc1c(C)c2c(c(C)c1O)CC[C@@](C)(CCC[C@H](C)CCC[C@H](C)CCCC(C)C)O2` [vitamin E, α-tocopherol], in test [1] (any experimental time point, glucose 200 mg/dL), the “effect on cholesterol domain formation as compared to control” value is recorded as “no significant effect on cholesterol domain formation”. In addition, in test [1] (glucose 200 mg/dL), the “effect on membrane structure as compared to control” value is “no appreciable effect on membrane structure”. The “effect on LDL oxidation” value with unfractionated LDL (1.0 μM to 10.0 μM) was “did not inhibit LDL oxidation at any concentration”.
